Test system: infected PBMCs (VSV-G pseudotyped HIV virus VSV-G/pNLG1-P2A-ΔEnv)
Test: cells
Assay type: cell-based, human
Conditions: Homo sapiens, PBMC, read-out: TACK EC50

Compound	EC50 [nM]
Cc1c(C#N)cc(C(F)F)cc1Oc1c(C(F)(F)C(F)F)ncn(Cc2cnc(-c3cnn(C)c3)[nH]c2=O)c1=O [Example 47, 5-(difluoromethyl)-2-methyl-3-((1-((2-(1-methyl-1H-pyrazol-4-yl)-6-oxo-1,6-dihydropyrimidin-5-yl)methyl)-6-oxo-4-(1,1,2,2-tetrafluoroethyl)-1,6-dihydropyrimidin-5-yl)oxy)benzonitrile]	394
Cc1cc(C#N)c(F)c(Oc2c(C(F)(F)C(F)F)ncn(Cc3c(C)nc(C)[nH]c3=O)c2=O)c1 [Example 40, 3-((1-((2,4-dimethyl-6-oxo-1,6-dihydropyrimidin-5-yl)methyl)-6-oxo-4-(1,1,2,2-tetrafluoroethyl)-1,6-dihydropyrimidin-5-yl)oxy)-2-fluoro-5-methylbenzonitrile]	198
CCc1cc(C#N)c(F)c(Oc2c(C(F)(F)C(F)F)ncn(Cc3c(C)nc(C)[nH]c3=O)c2=O)c1 [Example 42, 3-((1-((2,4-dimethyl-6-oxo-1,6-dihydropyrimidin-5-yl)methyl)-6-oxo-4-(1,1,2,2-tetrafluoroethyl)-1,6-dihydropyrimidin-5-yl)oxy)-5-ethyl-2-fluorobenzonitrile]	308
Cc1nc(C)c(Cn2cnc(C(F)(F)C(F)(F)F)c(Oc3cc(C#N)cc(C(F)F)c3)c2=O)c(=O)[nH]1 [Example 84]	291
Cc1nc(C(C)O)[nH]c(=O)c1Cn1cnc(C(F)(F)C(F)F)c(Oc2cc(Cl)cc(C#N)c2F)c1=O (single isomer, unassigned) [Example 44]	333
Cc1nc(CCCO)[nH]c(=O)c1Cn1cnc(C(F)(F)C(F)F)c(Oc2cc(C(F)F)cc(C#N)c2C)c1=O [Example 49, 5-(difluoromethyl)-3-((1-((2-(3-hydroxypropyl)-4-methyl-6-oxo-1,6-dihydropyrimidin-5-yl)methyl)-6-oxo-4-(1,1,2,2-tetrafluoroethyl)-1,6-dihydropyrimidin-5-yl)oxy)-2-methylbenzonitrile]	278
Cc1nc(C)c(Cn2cnc(C(F)(F)C(F)(F)F)c(Oc3cc(Cl)cc(C#N)c3Cl)c2=O)c(=O)[nH]1 [Example 80, 2,5-dichloro-3-((1-((2,4-dimethyl-6-oxo-1,6-dihydropyrimidin-5-yl)methyl)-6-oxo-4-(perfluoroethyl)-1,6-dihydropyrimidin-5-yl)oxy)benzonitrile]	340
Cc1nc(C)c(Cn2cnc(C(F)(F)F)c(Oc3cc(Cl)cc(C#N)c3F)c2=O)c(=O)[nH]1 [Example 92, 5-chloro-3-((1-((2,4-dimethyl-6-oxo-1,6-dihydropyrimidin-5-yl)methyl)-6-oxo-4-(trifluoromethyl)-1,6-dihydropyrimidin-5-yl)oxy)-2-fluorobenzonitrile]	284
